In test [1] the test system is HEK293. The test is described as follows: HEK cell cytotoxicity by LDH release, dose response, cytotoxicity control for IDE activator project, fluorescence, HEK cells (AID 588440).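 Also: cytotoxicity by LDH release measuring loss of membrane integrity.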 The conditions noted are these: Homo sapiens. It is filed as functional, cell-based. On the technique in general: LDH leaks from cells whose membrane has failed.
Test [2] has as its system HEK293. The test is described as follows: optical interference in Abeta FP readout, dose response, artefact control for IDE activator project, biochemical, fluorescence polarization (AID 588442). It is filed as functional, cell-based. The note with it: Homo sapiens. Background: Fluorescence polarisation rises when a labelled molecule tumbles more slowly, as on binding a larger partner.

In test [3] the target is T1, Insulin-degrading enzyme (Homo sapiens, UniProt P14735).
T1 sequence (P14735 whole entry): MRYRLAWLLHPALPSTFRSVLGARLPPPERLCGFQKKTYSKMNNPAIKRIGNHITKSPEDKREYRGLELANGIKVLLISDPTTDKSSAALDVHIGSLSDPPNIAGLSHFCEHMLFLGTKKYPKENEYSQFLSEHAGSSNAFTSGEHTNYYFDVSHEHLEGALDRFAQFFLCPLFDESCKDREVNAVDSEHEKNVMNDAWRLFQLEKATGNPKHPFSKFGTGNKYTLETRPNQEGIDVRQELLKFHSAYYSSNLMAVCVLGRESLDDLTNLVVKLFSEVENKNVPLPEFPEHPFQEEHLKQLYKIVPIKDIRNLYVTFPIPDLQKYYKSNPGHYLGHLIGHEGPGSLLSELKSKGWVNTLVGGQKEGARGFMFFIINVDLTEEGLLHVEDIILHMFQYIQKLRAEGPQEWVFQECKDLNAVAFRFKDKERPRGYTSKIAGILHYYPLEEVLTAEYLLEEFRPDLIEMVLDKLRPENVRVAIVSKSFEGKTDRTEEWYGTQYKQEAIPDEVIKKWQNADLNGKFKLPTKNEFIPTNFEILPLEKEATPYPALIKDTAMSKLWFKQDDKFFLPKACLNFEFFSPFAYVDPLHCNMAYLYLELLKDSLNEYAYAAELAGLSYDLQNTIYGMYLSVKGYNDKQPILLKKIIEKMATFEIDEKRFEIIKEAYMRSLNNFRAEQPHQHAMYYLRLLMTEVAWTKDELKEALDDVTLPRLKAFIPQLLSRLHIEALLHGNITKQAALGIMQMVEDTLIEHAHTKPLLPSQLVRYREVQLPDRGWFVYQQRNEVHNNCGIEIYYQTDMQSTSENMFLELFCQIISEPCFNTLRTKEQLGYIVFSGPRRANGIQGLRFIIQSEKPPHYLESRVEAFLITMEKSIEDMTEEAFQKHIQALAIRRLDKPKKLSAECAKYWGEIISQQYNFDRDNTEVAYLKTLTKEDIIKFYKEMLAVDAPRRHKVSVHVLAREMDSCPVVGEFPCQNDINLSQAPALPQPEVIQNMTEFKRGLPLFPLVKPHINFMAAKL
The test is described as follows: activators of endogenous IDE in HEK cells, dose response, cell-based, fluorescence polarization (AID 588439). The class given is functional.

Test [4] concerns the target T1, Insulin-degrading enzyme. The test is described as follows: activators of recombinant IDE enzyme, dose response, counter-screen for IDE activator project, biochemical, fluorescence polarization (AID 588681). (A counterscreen serves to expose hits that act by an unwanted route or on another target.)
Test [5] is described as follows: intracellular Trypanosoma cruzi inhibitors in host cells – cell-based, plate reader, cherry-pick samples, set 3, dose response (AID 651818).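 Also: compounds incubated with infected cells for about four days.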 It is filed as functional.
Test [6] deals with T2, Polyadenylate-binding protein 1 (Homo sapiens, UniProt P11940). The test is described as follows: PABP1 MLLE–PAM2 binding inhibitor potency, dose response, biochemical, fluorescence polarization, FITC-PAM2 peptide (AID 602259). The class given is functional. The note with it: read-out: IC50_Mean.
In test [7] the target is T3, Histone-lysine N-methyltransferase NSD2 (Homo sapiens, UniProt O96028).
T3 sequence (O96028 whole entry): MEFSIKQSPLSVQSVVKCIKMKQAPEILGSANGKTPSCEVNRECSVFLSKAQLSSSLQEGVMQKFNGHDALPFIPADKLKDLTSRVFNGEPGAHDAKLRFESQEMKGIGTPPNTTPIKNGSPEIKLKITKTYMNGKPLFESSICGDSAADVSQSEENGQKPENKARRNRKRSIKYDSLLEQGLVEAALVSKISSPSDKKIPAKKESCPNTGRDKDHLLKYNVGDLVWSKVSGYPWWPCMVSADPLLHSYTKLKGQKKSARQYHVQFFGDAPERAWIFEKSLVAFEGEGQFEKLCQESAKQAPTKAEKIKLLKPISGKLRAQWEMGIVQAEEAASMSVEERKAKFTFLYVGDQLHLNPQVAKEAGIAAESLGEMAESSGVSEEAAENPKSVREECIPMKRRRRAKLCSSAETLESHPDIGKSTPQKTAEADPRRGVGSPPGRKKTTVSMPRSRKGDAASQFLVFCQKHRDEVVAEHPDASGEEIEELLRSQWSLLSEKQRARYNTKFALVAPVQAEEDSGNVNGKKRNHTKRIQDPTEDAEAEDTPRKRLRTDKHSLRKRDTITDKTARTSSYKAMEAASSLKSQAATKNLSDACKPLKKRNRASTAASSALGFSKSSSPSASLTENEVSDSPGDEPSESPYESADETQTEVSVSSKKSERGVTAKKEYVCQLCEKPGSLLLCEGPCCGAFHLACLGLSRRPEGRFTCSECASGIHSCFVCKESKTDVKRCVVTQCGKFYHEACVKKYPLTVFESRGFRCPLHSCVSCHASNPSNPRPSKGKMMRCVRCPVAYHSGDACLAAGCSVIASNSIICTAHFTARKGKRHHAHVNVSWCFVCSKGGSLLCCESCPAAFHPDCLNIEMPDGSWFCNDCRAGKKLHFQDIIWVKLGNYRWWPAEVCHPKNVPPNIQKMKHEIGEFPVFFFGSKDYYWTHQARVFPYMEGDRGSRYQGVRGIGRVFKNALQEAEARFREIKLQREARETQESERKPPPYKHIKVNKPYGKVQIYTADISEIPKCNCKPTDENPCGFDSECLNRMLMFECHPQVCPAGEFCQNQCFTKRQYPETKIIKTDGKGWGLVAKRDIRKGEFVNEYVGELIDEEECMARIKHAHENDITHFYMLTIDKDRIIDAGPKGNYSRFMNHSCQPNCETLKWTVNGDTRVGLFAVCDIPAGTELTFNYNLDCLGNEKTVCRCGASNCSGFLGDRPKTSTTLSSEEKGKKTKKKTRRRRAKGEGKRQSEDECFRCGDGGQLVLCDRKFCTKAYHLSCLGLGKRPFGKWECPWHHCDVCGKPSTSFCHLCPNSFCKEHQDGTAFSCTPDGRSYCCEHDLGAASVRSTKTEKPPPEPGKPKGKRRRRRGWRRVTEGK
It is filed as biochemical.

The target of test [8] is T2, Polyadenylate-binding protein 1. The test is described as follows: PABP1 MLLE–PAM2 interaction inhibitors, dose response, miRNA deadenylation inhibitor project, biochemical, fluorescence polarization, Cy5-PAM2 peptide, secondary (AID 602260). The class given is functional. The note with it: read-out: IC50_Mean.
A further test deals with T4, Caspase-6 (Homo sapiens, UniProt P55212).
T4 sequence (P55212 whole entry): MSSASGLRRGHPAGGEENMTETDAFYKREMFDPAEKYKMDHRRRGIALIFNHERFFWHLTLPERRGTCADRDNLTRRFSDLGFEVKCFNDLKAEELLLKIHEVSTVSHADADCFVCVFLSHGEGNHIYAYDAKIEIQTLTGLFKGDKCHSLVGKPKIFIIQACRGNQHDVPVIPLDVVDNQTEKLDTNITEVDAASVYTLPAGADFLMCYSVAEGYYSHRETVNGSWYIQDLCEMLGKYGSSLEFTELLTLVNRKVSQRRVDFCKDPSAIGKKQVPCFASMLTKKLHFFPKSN
The test is described as follows: human caspase-6 inhibitors, dose response, biochemical, VEID-R110 fluorescence, cherry-pick (AID 720632).

Test [9] deals with Dual specificity protein phosphatase 3 (Homo sapiens, UniProt P51452). The test is described as follows: VHR phosphatase inhibition, dose response, selectivity assay for STEP inhibitor project, biochemical (AID 602374). It is filed as functional. The conditions noted are these: read-out: IC50_Mean.
The target of test [10] is T5, Tyrosine-protein phosphatase non-receptor type 11 (Homo sapiens, UniProt Q06124).
T5 sequence (Q06124 whole entry): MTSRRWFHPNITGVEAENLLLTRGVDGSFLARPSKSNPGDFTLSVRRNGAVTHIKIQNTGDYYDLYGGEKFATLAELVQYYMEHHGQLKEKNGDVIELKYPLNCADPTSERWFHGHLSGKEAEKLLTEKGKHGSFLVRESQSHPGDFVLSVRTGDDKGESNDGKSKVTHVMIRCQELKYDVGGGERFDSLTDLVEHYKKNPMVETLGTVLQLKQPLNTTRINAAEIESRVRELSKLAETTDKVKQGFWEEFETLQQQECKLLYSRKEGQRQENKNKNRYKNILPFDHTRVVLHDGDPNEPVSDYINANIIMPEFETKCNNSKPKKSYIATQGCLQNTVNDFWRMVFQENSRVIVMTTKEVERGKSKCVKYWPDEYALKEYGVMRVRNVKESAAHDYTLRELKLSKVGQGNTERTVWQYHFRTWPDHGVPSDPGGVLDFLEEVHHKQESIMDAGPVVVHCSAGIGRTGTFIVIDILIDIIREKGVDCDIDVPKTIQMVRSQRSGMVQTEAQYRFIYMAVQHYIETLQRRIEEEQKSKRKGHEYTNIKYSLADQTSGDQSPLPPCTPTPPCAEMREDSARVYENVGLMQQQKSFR
The test is described as follows: SHP2 phosphatase inhibition, dose response, selectivity assay for STEP inhibitor project, biochemical (AID 602367). The note with it: read-out: IC50_Mean. The class given is functional.

The target in test [11] is T6, Tyrosine-protein phosphatase non-receptor type 5 (Homo sapiens, UniProt P54829).
T6 sequence (P54829 whole entry): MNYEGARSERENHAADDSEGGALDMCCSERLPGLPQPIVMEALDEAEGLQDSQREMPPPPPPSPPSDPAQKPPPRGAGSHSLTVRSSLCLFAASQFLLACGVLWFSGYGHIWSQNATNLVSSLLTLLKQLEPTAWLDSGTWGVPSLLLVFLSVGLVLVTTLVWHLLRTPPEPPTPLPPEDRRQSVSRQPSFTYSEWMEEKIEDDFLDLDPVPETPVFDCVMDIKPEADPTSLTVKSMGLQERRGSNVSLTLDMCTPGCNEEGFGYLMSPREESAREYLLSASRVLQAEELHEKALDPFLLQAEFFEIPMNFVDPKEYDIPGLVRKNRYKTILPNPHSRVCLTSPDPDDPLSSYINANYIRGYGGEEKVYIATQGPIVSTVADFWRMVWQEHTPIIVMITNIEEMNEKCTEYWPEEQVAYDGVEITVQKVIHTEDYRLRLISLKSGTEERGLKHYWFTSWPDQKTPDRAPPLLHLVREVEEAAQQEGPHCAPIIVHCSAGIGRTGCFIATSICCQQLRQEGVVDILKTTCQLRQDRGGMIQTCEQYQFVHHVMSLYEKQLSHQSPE
The test is described as follows: STEP phosphatase inhibitors, confirmation, biochemical, fluorescence intensity, uHTS hits (AID 602372). It is filed as functional. The conditions noted are these: read-out: IC50_Mean.

Calls of active or inactive are those of the source. A value given as a limit tells only on which side of the number the result lay.

Chain of Dual specificity protein phosphatase 3 (P51452 whole entry): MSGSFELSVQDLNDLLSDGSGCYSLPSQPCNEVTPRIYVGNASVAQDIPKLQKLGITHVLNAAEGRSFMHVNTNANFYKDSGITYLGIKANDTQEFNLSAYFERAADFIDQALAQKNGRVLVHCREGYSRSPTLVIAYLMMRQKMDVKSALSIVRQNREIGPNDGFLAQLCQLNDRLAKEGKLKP
T2 sequence (P11940 whole entry): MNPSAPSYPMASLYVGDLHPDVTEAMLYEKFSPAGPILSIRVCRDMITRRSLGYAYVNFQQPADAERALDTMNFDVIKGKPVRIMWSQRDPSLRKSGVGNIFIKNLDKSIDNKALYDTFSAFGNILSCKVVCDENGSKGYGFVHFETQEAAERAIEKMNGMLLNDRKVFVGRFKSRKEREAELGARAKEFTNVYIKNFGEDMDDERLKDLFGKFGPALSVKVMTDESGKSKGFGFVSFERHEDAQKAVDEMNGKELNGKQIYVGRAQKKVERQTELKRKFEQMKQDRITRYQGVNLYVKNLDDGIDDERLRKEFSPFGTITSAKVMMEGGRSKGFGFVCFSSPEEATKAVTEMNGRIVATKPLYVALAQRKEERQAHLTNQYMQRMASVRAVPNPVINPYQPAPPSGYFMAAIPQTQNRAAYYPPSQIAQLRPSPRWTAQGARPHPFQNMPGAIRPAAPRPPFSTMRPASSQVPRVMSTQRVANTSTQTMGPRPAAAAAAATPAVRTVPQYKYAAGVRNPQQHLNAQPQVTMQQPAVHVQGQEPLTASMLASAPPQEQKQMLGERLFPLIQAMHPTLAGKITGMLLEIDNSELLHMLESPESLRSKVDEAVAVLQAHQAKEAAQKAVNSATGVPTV

Take `CC(=O)Nc1ccc(S(=O)(=O)NCCc2ccccn2)cc1`: the IC50 in the test with HEK293 [1] was > 89.2 µM (inactive). Also, the EC50 with HEK293 [2] is > 56 µM (inactive); at Insulin-degrading enzyme [3], > 54.7 µM (inactive); at Insulin-degrading enzyme [4] it was > 54.7 µM (inactive).
As for `C[C@@H]1CN([C@H](C)CO)C(=O)c2cccc(NC(=O)c3nc4ccccc4s3)c2O[C@H]1CN(C)S(=O)(=O)c1ccc(Cl)cc1`, in test [5], the AC50 was 0.964 µM (active).
`Nc1ccc2c(O)cc(S(=O)(=O)O)cc2c1`: the IC50 is > 66 µM (inactive) in test [6]; > 66 µM (inactive) in test [8]; 3.43 µM (active) in test [9]; 1.04 µM (active) in test [10]; 33.4 µM (inactive) in test [11]. Also, the AC50 in test [7] was 6.49 µM (active); on Caspase-6 it was 2.15 µM (active).
On to `C[C@H](CO)N1C[C@H](C)[C@H](CN(C)S(=O)(=O)c2ccc(F)cc2)Oc2ccc(NS(=O)(=O)c3ccc(F)cc3)cc2C1=O`, for which the AC50 in test [5] was 7.7 µM (active).
Same read-out and setting: the result for `C[C@H]1CN([C@@H](C)CO)C(=O)Cc2cc(NC(=O)Nc3cccc4ccccc34)ccc2O[C@@H]1CN(C)CC1CCCCC1` reads 4.35 µM (active).
As for `Cc1ccc(C(=S)N2CCN(Cc3ccccc3)CC2)s1`, the IC50 was 0.997 µM (active) in test [9], 3.1 µM (active) in test [10] and 16.5 µM (active) in [11].

For orientation: EC50 means the concentration that produces a half-maximal response. A word on the AC50: it is the midpoint of the concentration-response curve, whichever way the signal moves.

(Values after ChEMBL document CHEMBL1201862, “PubChem BioAssay data set” (2004).)
